This is an account of results in US20080194617A1, “Fused ring compound” (priority 2007, published 2008).

Broadly, the EC50 is the midpoint of the concentration-response curve. A higher EC50 goes with lower potency in that assay.

In this test the target is T1, PPARγ-RXRα heterodimer (Homo sapiens, UniProt P37231).
T1 construct: expressed in transfected cells; host or cells: CHO-K1 (PPARγ:RXRα:4ERPP/CHO-K1)
T1 sequence (P37231 1-505): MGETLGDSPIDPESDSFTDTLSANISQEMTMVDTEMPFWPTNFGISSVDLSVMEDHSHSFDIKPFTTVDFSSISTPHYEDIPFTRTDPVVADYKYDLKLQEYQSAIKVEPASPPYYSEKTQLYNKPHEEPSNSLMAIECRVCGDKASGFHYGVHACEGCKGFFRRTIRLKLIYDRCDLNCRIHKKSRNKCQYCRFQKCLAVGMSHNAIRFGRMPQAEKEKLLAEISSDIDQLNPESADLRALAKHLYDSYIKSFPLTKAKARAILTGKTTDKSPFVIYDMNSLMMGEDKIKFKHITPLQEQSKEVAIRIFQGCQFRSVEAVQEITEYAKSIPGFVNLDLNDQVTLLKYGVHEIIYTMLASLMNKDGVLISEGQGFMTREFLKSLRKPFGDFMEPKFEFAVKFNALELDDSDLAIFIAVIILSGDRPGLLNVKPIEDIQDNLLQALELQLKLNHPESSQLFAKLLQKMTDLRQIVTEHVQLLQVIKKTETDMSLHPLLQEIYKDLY
T1 sequence (P19793 1-462 partner): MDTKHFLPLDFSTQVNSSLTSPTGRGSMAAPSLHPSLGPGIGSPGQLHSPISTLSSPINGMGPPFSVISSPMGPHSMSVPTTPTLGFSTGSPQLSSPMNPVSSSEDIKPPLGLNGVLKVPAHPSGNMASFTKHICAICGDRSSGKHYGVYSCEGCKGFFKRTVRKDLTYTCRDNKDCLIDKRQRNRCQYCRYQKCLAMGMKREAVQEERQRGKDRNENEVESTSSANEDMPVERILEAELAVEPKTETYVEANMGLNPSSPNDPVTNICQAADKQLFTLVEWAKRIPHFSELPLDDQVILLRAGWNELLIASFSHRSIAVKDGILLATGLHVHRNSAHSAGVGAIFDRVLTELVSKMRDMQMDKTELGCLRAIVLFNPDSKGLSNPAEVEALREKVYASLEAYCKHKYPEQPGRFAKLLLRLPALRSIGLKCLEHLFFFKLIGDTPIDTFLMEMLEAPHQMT
As to the kind of experiment: PPARγ-RXRα heterodimer ligand activity (luciferase reporter assay in PPARγ:RXRα:4ERPP/CHO-K1 cells). In kind it is cell-based. To be noted: incubated one day with test compound, luciferase induction rate, compound concentration showing 50% of the maximum value of induction rate. The procedure: The PPARγ:RXRα:4ERPP/CHO-K1 cells described in WO03/099793 were cultured in a Ham F12 medium [manufactured by Life Technologies, Inc., US] containing 10% calf fetal serum [manufactured by Life Technologies, Inc., US], sown in a 96-well white plate [manufactured by Corning Coster Corporation, US] at 1×10^4 cells/well, and incubated overnight in a carbon dioxide gas incubator at 37° C.
Then, the medium was removed from the 96 well white plate, 45 μl of Ham F12 medium containing 0.1% fatty acid-free bovine serum albumin (BSA) and a test compound (5 μl) were added, and the cells were incubated for one day in a carbon dioxide gas incubator at 37° C. The medium was removed, 20 μl of PicaGene 7.5 (manufactured by Wako Pure Chemical Industries, Ltd.) 2-fold diluted with HBSS (HANKS' BALANCED SALT SOLUTION) [manufactured by BIO WHITTAKER, US] was added. After stirring, the luciferase activity was determined using the 1420 ARVO Multilabel Counter [manufactured by PerkinElmer, US].
The induction rate was calculated from the luciferase activity of each test compound based on the luciferase activity of the test compound non-administration group as 1. The test compound concentration and the induction rate were analyzed by PRISM [manufactured by GraphPad Software, Inc., US] to calculate EC50 value (compound concentration showing 50% of the maximum value of induction rate) of the test compound.
A general note: In a reporter assay the amount or activity of a reporter protein is the signal.

The compound `CCCCCS(=O)(=O)NC(=O)/C=C/c1c(C)nn(C)c1-c1csc2ccccc12` [Example 6, (2E)-3-[5-(1-benzothien-3-yl)-1,3-dimethyl-1H-pyrazol-4-yl]-N-(pentylsulfonyl)acrylamide] came in with a half-maximal effective concentration (EC50) of 19 nM.
Then `CCCCCS(=O)(=O)NC(=O)/C=C/c1c(C)nn(C)c1-n1ccc2ccccc21` [Example 7, potassium {(2E)-3-[5-(1H-indol-1-yl)-1,3-dimethyl-1H-pyrazol-4-yl]prop-2-enoyl}(pentylsulfonyl)azanide], with 39 nM; and `CCCCCS(=O)(=O)NC(=O)/C=C/c1c(C)nn(C)c1-n1ccc2cccnc21` [Example 9, (2E)-3-[1,3-dimethyl-5-(1H-pyrrolo[2,3-b]pyridin-1-yl)-1H-pyrazol-4-yl]-N-(pentylsulfonyl)acrylamide], with 64 nM.
For the compound `CCCCCS(=O)(=O)NC(=O)/C=C/c1c(C)nn(C)c1-c1cccc2cccnc12` [Example 24, (2E)-3-[1,3-dimethyl-5-(quinolin-8-yl)-1H-pyrazol-4-yl]-N-(pentylsulfonyl)acrylamide], the EC50 was 54 nM.
Under `CCCCCS(=O)(=O)NC(=O)/C=C/c1c(C)nn(C)c1-n1ccc2cc(Cl)ccc21` [Example 27, (2E)-3-[5-(5-chloro-1H-indol-1-yl)-1,3-dimethyl-1H-pyrazol-4-yl]-N-(pentylsulfonyl)acrylamide] stands 6.1 nM; under `CCCCCS(=O)(=O)NC(=O)/C=C/c1c(C)nn(C)c1-n1ccc2ccc(C(F)(F)F)cc21` [Example 31, potassium ((2E)-3-{1,3-dimethyl-5-[6-(trifluoromethyl)-1H-indol-1-yl]-1H-pyrazol-4-yl}prop-2-enoyl)(pentylsulfonyl)azanide], 5.5 nM; under `Cc1ccc(S(=O)(=O)NC(=O)/C=C/c2c(C)nn(C)c2-n2ccc3cccnc32)cc1` [Example 33, (2E)-3-[1,3-dimethyl-5-(1H-pyrrolo[2,3-b]pyridin-1-yl)-1H-pyrazol-4-yl]-N-[(4-methylphenyl)sulfonyl]acrylamide], 88 nM.
Under `CCCCCS(=O)(=O)NC(=O)CCc1c(C)nn(C)c1N1CCc2cccnc21` [Example 40, 3-[5-(2,3-dihydro-1H-pyrrolo[2,3-b]pyridin-1-yl)-1,3-dimethyl-1H-pyrazol-4-yl]-N-(pentylsulfonyl)propanamide] stands 12 nM; under `Cc1nn(C)c(-n2ccc3cc(Cl)ccc32)c1/C=C/C(=O)NS(=O)(=O)c1ccco1` [Example 55, (2E)-3-[5-(5-chloro-1H-indol-1-yl)-1,3-dimethyl-1H-pyrazol-4-yl]-N-(2-furylsulfonyl)acrylamide], 44 nM; under `CCCCCNS(=O)(=O)NC(=O)/C=C/c1c(C)nn(C)c1-n1ccc2cc(Cl)ccc21` [Example 62, (2E)-3-[5-(5-chloro-1H-indol-1-yl)-1,3-dimethyl-1H-pyrazol-4-yl]-N-[(pentylamino)sulfonyl]acrylamide], 37 nM.
Under `CCCCCS(=O)(=O)NC(=O)OCCc1c(C)nn(C)c1-n1ccc2cc(Cl)ccc21` [Example 66, 2-[5-(5-chloro-1H-indol-1-yl)-1,3-dimethyl-1H-pyrazol-4-yl]ethyl (pentylsulfonyl)carbamate] stands 22 nM.
`CCCCCS(=O)(=O)NC(=O)NCCCc1c(C)nn(C)c1-n1ccc2cc(Cl)ccc21` [Example 82, N-[({3-[5-(5-chloro-1H-indol-1-yl)-1,3-dimethyl-1H-pyrazol-4-yl]propyl}amino)carbonyl]pentane-1-sulfonamide] registered a concentration for a half-maximal effect (EC50) of 67 nM.
Compound `Cc1nn(C)c(-n2ccc3cc(Cl)ccc32)c1/C=C1\SC(=O)NC1=O` [Example 84, (5Z)-5-{[5-(5-chloro-1H-indol-1-yl)-1,3-dimethyl-1H-pyrazol-4-yl]methylene}-1,3-thiazolidine-2,4-dione] came in with an EC50 of 220 nM.
Under `CCCCNS(=O)(=O)NC(=O)/C=C/c1c(C)nn(C)c1-n1ccc2cc(Cl)ccc21` [Example 99, (2E)-N-[(butylamino)sulfonyl]-3-[5-(5-chloro-1H-indol-1-yl)-1,3-dimethyl-1H-pyrazol-4-yl]acrylamide] stands 24 nM; under `Cc1nn(C)c(-n2ccc3cc(Cl)ccc32)c1CCS(=O)(=O)NC(=O)OCC1CC1` [Example 189, cyclopropylmethyl ({2-[5-(5-chloro-1H-indol-1-yl)-1,3-dimethyl-1H-pyrazol-4-yl]ethyl}sulfonyl)carbamate], 54 nM.
Under `CCCCOC(=O)NS(=O)(=O)CCc1c(C(F)(F)F)nn(C)c1-n1ccc2cc(Cl)cnc21` [Example 197, butyl ({2-[5-(5-chloro-1H-pyrrolo[2,3-b]pyridin-1-yl)-1-methyl-3-(trifluoromethyl)-1H-pyrazol-4-yl]ethyl}sulfonyl)carbamate] stands 86 nM; under `CCCCCS(=O)(=O)NC(=O)/C=C/c1c(C)nn(C)c1-n1ccc2cc(C)cnc21` [Example 232, (2E)-3-[1,3-dimethyl-5-(5-methyl-1H-pyrrolo[2,3-b]pyridin-1-yl)-1H-pyrazol-4-yl]-N-(pentylsulfonyl)acrylamide], 15 nM.
`Cc1nn(C)c(-n2ccc3cc(Cl)cnc32)c1/C=C/C(=O)NS(=O)(=O)NCC1CC1` [Example 264, (2E)-3-[5-(5-chloro-1H-pyrrolo[2,3-b]pyridin-1-yl)-1,3-dimethyl-1H-pyrazol-4-yl]-N-{[(cyclopropylmethyl)amino]sulfonyl}acrylamide] registered an EC50 of 26 nM.
`CCCCNC(=O)NS(=O)(=O)CCc1c(C2CC2)nn(C)c1-n1ccc2cc(Cl)cnc21` [Example 279, N-[(butylamino)carbonyl]-2-[5-(5-chloro-1H-pyrrolo[2,3-b]pyridin-1-yl)-3-cyclopropyl-1-methyl-1H-pyrazol-4-yl]ethanesulfonamide]: the half-maximal effective concentration (EC50) was determined as 60 nM.
Then `CCCCS(=O)(=O)NC(=O)/C=C/c1c(C)nn(C)c1-n1ccc2cc(Cl)cnc21` [Example 283, (2E)-N-(butylsulfonyl)-3-[5-(5-chloro-1H-pyrrolo[2,3-b]pyridin-1-yl)-1,3-dimethyl-1H-pyrazol-4-yl]acrylamide], with 14 nM.
Under `CCCCNC(=O)NS(=O)(=O)CCc1c(C)nn(C)c1-n1ccc2cc(C(F)(F)F)cnc21` [Example 294, N-[(butylamino)carbonyl]-2-{1,3-dimethyl-5-[5-(trifluoromethyl)-1H-pyrrolo[2,3-b]pyridin-1-yl]-1H-pyrazol-4-yl}ethanesulfonamide] stands 32 nM.
Under `CCCCOC(=O)NS(=O)(=O)CCc1c(C)nn(C)c1-n1ccc2cc(C(F)(F)F)cnc21` [Example 295, butyl [(2-{1,3-dimethyl-5-[5-(trifluoromethyl)-1H-pyrrolo[2,3-b]pyridin-1-yl]-1H-pyrazol-4-yl}ethyl)sulfonyl]carbamate] stands 22 nM.
